Data as given in ChEMBL document CHEMBL5550115, “Histone deacetylase (HDAC) inhibitor specificity determinants are preserved in a class of dual HDAC/non-covalent proteasome inhibitors” (Bioorg Med Chem, 2024).

Columns and labels:
20S proteasome = experiment: Inhibition of human 20S proteasome chymotrypsin-like activity using Suc-LLVY-Glo as a […] substrate measured after 10 mins by luminescence based analysis; format: protein-complex assay
RPMI-8226 = experiment: Antiproliferative activity against human RPMI-8226 cells assessed as inhibition of cell growth measured after 72 hrs by MTS method; format: functional, cell-based; details: RPMI-8226, 72 h
A-375 = experiment: Antiproliferative activity against human A-375 cells assessed as inhibition of cell growth measured after 48 hrs by cell titer-blue cell viability assay; format: functional, cell-based; details: A-375, 48 h
[1] = target: Histone deacetylase 1 (Homo sapiens) (UniProt Q13547); experiment: Inhibition of HDAC1 (unknown origin) at 1 uM incubated for 1 hr by fluorescence based microplate reader analysis relative to control
Chain of Histone deacetylase 1 (Homo sapiens) (Q13547 whole entry): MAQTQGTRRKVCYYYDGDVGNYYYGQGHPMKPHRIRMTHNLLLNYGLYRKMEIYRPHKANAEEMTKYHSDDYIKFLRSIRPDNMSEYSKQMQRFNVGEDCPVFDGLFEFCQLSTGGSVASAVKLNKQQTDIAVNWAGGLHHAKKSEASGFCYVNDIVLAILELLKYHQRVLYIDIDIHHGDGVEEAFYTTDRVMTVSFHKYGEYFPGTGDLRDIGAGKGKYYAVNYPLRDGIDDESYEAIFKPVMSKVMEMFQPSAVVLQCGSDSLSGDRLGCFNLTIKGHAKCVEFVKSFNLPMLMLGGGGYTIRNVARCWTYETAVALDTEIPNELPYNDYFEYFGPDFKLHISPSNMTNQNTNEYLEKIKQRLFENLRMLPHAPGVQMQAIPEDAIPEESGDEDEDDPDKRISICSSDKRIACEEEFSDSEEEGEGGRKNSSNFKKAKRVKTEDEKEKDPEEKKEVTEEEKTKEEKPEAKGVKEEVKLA

[2] = target: T1, Protein deacetylase HDAC6 (Homo sapiens) (UniProt Q9UBN7); experiment: Inhibition of HDAC6 (unknown origin) at 1 uM incubated for 1 hr by fluorescence based microplate reader analysis relative to control
T1 sequence (whole entry): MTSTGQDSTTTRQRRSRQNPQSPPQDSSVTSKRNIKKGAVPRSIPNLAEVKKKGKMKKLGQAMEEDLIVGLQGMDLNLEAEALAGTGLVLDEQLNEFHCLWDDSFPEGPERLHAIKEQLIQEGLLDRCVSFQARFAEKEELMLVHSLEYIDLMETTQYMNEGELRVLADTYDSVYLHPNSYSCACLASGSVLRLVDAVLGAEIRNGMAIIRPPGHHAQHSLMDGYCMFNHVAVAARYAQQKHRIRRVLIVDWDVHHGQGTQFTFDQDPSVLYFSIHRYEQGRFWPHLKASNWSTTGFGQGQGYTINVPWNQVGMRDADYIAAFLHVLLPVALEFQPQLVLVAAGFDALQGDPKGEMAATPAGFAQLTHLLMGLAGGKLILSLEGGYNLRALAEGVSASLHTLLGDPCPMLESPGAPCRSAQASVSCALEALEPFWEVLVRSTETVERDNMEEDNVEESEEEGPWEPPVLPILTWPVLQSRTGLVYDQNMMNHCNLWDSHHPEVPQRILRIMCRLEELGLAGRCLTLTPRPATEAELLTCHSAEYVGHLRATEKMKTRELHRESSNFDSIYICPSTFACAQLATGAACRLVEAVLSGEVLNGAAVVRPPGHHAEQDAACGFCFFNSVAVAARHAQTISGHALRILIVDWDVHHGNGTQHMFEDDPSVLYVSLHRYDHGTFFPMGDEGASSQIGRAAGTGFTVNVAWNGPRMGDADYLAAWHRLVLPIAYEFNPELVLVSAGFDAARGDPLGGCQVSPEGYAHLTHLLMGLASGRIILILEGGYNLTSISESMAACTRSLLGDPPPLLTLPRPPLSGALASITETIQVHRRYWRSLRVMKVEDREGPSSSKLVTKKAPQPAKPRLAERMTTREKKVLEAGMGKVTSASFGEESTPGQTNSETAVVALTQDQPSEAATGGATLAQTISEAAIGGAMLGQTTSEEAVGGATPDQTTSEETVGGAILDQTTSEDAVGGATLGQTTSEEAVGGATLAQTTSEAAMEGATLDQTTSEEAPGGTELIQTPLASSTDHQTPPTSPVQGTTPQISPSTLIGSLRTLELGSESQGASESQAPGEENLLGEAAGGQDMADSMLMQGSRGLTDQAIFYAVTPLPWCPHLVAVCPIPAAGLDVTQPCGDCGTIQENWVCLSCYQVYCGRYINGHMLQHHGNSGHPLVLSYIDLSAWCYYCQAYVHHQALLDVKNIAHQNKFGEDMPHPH

[3] = target: T2, Proteasome Macropain subunit MB1 (Homo sapiens, UniProt P28074); experiment: Inhibition of human 20S proteosome beta5c subunit using Ac-WLA-AMC as substrate by microplate reader analysis
T2 sequence (P28074 whole entry): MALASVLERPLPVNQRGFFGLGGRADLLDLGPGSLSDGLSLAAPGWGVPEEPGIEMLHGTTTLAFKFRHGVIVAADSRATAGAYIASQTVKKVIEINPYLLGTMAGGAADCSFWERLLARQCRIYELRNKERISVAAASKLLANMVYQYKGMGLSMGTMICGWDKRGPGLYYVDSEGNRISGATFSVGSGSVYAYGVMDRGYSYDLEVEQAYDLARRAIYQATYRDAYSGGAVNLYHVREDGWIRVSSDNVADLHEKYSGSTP

Compound	IC50 (20S proteasome)	IC50 (RPMI-8226)	IC50 (A-375)	inhibition [1]	inhibition [2]	IC50 [3]
C[C@H](NC(=O)[C@H](CC(=O)NCC(C)(C)C)NC(=O)CCCCCCC(=O)NO)C(=O)NCc1ccc(F)cc1F	> 30 µM	> 50 µM				
C[C@H](NC(=O)[C@H](CC(=O)NCC(C)(C)C)NC(=O)CCC(=O)Nc1ccc(C(=O)NO)cc1)C(=O)NCc1ccc(F)cc1F	> 30 µM	> 50 µM	> 50 µM			
C[C@H](NC(=O)[C@H](CC(=O)NCC(C)(C)C)NC(=O)c1ccc(C(=O)Nc2ccccc2N)cc1)C(=O)NCc1ccc(F)cc1F		> 50 µM	> 50 µM	65%	13%	

Second part, the compound after the results:

IC50 (20S proteasome)	IC50 (RPMI-8226)	IC50 (A-375)	inhibition [1]	inhibition [2]	IC50 [3]	Compound
0.199 µM	7.03 µM	1.83 µM				C[C@H](NC(=O)[C@H](CC(=O)NCC(C)(C)C)NC(=O)c1ccc(/C=C/C(=O)NO)cc1)C(=O)NCc1ccc(F)cc1F
> 30 µM	> 50 µM					C[C@H](NC(=O)[C@H](CC(=O)NCC(C)(C)C)NC(=O)c1ccc(C(=O)NO)cc1)C(=O)NCc1ccc(F)cc1F
0.729 µM	11.5 µM	8.87 µM			0.0024 µM	C[C@H](NC(=O)[C@H](CC(=O)NCC(C)(C)C)NC(=O)c1c[nH]c2ccccc12)C(=O)NCc1ccc(F)cc1F
